Data: ChEMBL document CHEMBL1201862, “PubChem BioAssay data set” (2004)
The source made the active and inactive calls.

Legend:
[1] = target: Endoplasmic reticulum aminopeptidase 1 (Homo sapiens, UniProt Q9NZ08); experiment: ERAP1 aminopeptidase inhibitors, dose response, biochemical, cherry-pick, set 2, plate reader (AID 743314)
[2] = target: NS3 (Hepatitis C virus, UniProt A3EZJ3); experiment: HCV NS3 helicase inhibitor potency, dose response, biochemical, fluorescence polarization, ChemBridge library (AID 743264)
[3] = cytotoxicity in HepG2 cells, dose response, cytotoxicity control, cell-based, cherry-picked samples (AID 1053183); format: functional
[4] = cytotoxicity in HEK293 cells, dose response, cytotoxicity control, cell-based, cherry-picked samples (AID 1053185); format: functional
[5] = target: Metabotropic glutamate receptor 5 (Rattus norvegicus, UniProt P31424); experiment: Identification of a glycine sulfonamide based non-MPEP site positive allosteric potentiator (PAM) of mGlu5 (calcium_assay).; format: functional
[6] = A Cell-Based Confirmatory Screen for Compounds that Inhibit VEEV, TC-83 (5).; format: functional
[7] = A Cell-Based Confirmatory Screen for Compounds that Inhibit VEEV TC-83 (4).; format: functional
[8] = inhibitors of non-replicating M. tuberculosis, dose response, luciferase, dry powder (AID 651619); format: functional; settings: Mycobacterium tuberculosis
[9] = inhibitors of non-replicating M. tuberculosis, dose response, luciferase, dry powder (AID 651620); format: functional; settings: Mycobacterium tuberculosis
[10] = growth inhibition of replicating M. tuberculosis, dose response, counter-screen, dry powder, IC90 (AID 651617); format: functional; settings: Mycobacterium tuberculosis
[11] = YAP1 pathway inhibition via CTGF transcript levels, dose response, cell-based, DLD1 colon cancer, RT-qPCR, cherry-pick (AID 1053122); format: functional; settings: Cancer cell lines
[12] = target: Potassium channel subfamily K member 3 (Homo sapiens, UniProt O14649); experiment: TASK1 (KCNK3) potassium channel inhibitors, SAR follow-up, CHO cells, FluxOR thallium flux (AID 652212); format: functional
[13] = target: Protein Wnt-3a (Mus musculus, UniProt P27467); experiment: SAR analysis of small molecule antagonists of Gli-SUFU in a Wnt3a luminescent reporter assay.; format: functional
[14] = target: COUP transcription factor 2 (Homo sapiens, UniProt P24468); experiment: Luminescence-based cell-based high throughput dose response assay to identify inhibitors of COUP-TFII (NR2F2).; format: functional;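 note: HEK293 cells transiently cotransfected with COUP-TFII expression vector and reporter; luciferase reporter luminescence driven by COUP-TFII from the pX2-168 reporter plasmid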
[15] = HeLa cell cytotoxicity, dose response, cytotoxicity control, 24 h, plate reader, powder samples, set 3 (AID 651864); format: functional, cell-based
[16] = cytotoxicity in HeLa cells, dose response, cytotoxicity control, cell-based, 24 h, dry powder, set 2 (AID 651774); format: functional

Chain of COUP transcription factor 2 (P24468 whole entry): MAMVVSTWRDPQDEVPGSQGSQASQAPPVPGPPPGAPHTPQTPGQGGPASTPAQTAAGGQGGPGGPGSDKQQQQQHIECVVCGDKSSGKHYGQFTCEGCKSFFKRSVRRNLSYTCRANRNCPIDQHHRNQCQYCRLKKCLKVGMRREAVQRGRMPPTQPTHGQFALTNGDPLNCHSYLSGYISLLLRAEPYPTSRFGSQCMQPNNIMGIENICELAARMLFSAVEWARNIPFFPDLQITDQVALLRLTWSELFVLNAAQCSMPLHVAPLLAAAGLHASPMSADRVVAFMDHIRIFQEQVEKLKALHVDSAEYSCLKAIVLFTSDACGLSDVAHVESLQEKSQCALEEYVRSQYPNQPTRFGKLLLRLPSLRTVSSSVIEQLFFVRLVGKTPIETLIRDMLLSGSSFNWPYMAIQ
Chain of Potassium channel subfamily K member 3 (O14649 whole entry): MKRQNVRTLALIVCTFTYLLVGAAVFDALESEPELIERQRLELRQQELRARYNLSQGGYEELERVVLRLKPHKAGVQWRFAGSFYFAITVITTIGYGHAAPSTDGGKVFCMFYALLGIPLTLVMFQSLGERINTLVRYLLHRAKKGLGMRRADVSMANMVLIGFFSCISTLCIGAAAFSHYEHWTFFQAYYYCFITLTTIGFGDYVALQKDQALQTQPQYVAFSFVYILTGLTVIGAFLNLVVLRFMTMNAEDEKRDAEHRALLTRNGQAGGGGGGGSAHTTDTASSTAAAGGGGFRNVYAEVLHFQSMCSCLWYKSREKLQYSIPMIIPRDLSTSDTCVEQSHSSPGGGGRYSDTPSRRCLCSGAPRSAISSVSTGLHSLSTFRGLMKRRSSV
Chain of Endoplasmic reticulum aminopeptidase 1 (Q9NZ08 whole entry): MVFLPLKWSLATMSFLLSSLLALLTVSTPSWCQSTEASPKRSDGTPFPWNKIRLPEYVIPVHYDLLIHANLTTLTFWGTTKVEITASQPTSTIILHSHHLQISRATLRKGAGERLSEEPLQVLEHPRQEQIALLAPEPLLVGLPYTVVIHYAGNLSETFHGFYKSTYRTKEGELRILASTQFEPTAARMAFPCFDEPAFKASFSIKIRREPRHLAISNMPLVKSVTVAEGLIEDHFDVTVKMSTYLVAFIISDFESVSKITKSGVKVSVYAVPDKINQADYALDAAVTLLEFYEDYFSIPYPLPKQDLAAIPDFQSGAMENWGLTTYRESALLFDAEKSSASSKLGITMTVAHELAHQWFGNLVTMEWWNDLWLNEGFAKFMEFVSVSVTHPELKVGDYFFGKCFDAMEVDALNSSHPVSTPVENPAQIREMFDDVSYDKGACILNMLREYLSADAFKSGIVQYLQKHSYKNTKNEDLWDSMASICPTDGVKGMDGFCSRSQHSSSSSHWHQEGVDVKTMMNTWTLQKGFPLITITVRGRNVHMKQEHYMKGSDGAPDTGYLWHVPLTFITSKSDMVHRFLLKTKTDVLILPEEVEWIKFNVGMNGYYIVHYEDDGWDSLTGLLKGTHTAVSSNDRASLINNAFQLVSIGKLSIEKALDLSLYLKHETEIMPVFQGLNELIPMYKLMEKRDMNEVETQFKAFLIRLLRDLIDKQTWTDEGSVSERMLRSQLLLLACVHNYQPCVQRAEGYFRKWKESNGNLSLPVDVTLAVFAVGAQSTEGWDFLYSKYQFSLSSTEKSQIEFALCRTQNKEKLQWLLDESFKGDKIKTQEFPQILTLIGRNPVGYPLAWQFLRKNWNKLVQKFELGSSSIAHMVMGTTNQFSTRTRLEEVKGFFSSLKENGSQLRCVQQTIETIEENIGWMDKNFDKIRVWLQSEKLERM
Chain of Metabotropic glutamate receptor 5 (P31424 whole entry): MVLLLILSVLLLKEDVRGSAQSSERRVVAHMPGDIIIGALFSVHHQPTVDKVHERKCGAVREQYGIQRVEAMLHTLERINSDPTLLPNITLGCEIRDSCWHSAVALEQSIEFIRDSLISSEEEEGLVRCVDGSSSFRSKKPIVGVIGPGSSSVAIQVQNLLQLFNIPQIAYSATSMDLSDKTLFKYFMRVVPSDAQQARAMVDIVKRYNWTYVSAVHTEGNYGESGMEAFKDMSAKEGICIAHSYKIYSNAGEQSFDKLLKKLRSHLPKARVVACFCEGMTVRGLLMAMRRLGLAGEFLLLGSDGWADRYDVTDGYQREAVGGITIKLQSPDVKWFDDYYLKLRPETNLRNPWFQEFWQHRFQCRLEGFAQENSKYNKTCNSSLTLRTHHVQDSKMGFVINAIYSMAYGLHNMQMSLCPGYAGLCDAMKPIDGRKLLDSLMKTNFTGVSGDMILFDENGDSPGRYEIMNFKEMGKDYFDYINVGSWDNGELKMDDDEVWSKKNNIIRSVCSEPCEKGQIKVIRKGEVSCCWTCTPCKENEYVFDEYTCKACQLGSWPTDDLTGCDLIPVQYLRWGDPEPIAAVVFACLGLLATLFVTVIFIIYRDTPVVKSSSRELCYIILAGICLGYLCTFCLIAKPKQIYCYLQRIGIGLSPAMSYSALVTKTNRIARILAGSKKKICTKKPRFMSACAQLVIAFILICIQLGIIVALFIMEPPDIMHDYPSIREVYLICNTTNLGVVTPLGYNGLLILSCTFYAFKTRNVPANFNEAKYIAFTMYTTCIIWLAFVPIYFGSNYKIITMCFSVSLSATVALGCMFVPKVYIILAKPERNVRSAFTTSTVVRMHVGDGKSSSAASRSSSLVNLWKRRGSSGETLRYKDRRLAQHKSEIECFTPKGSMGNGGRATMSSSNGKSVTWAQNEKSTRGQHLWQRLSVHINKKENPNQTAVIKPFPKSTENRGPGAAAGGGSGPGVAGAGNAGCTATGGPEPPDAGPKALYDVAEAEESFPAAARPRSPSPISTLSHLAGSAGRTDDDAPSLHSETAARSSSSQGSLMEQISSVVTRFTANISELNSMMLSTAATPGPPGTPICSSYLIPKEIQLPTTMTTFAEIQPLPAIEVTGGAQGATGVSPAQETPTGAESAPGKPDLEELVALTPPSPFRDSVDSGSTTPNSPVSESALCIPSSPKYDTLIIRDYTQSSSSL
Chain of NS3 (A3EZJ3 whole entry): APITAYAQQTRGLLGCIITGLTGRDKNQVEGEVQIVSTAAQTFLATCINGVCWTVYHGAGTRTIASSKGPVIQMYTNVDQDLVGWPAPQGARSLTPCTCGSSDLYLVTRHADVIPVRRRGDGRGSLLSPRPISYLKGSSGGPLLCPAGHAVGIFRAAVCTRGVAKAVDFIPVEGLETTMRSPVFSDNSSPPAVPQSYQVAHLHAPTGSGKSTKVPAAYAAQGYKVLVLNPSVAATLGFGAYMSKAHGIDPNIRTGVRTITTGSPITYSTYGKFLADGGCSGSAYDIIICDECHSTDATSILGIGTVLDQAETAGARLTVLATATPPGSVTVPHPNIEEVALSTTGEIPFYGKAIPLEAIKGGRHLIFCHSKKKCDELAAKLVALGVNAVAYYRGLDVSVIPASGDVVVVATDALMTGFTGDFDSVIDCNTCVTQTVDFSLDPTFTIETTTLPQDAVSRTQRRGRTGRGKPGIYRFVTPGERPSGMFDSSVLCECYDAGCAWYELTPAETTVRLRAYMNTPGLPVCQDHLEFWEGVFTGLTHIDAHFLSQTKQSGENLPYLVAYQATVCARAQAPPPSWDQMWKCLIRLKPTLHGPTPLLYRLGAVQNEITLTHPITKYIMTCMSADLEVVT
Chain of Protein Wnt-3a (P27467 whole entry): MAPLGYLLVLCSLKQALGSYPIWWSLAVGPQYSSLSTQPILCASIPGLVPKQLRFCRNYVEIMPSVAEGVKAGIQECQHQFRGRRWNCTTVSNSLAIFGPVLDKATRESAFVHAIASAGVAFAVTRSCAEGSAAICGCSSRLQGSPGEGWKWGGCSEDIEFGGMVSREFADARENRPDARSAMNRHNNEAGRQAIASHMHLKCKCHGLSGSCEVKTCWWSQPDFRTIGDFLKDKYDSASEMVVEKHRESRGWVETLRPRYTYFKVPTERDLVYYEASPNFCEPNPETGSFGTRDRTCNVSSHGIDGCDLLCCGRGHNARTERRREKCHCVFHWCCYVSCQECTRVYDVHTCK

Cc1cc(=O)oc2c(CN3CCCCC3)c(O)ccc12
AC50 [1]: 5.18 µM (active)

Cc1ccc(C)n1-c1cc(C(=O)O)ccc1O
IC50 [2]: 50.4 µM (active)

N#Cc1cccc(-c2ccc([C@H]3[C@@H]4CN(C(=O)Nc5ccc(C(F)(F)F)cc5)C[C@H]3N4)cc2)c1
AC50 [3]: 36.1 µM (active) | AC50 [4]: > 52 µM (inactive)

CC(C(=O)Nc1cc(Cl)ccn1)N(c1ccccc1Cl)S(C)(=O)=O (stereo unspecified)
EC50 [5]: 10 µM (inconclusive)

CCN1CCN(Cc2nc3ccc([N+](=O)[O-])cc3c(=O)n2-c2ccc(F)cc2)CC1
IC50 [6]: 0.99 µM (active) | IC50 [7]: 0.6 µM (active)

COc1ccc(-c2nnc(SCc3ccccn3)o2)cc1
IC90 [8]: 4 µM (active) | IC90 [9]: 4 µM (active) | IC90 [10]: 62 µM (active)

O=C(Cc1ccncc1)N1CCCCN2[C@@H](CO)[C@H](c3ccc(C#Cc4ccccc4F)cc3)[C@@H]2C1
AC50 [11]: 13.1 µM (active)

Cc1cccc(C(=O)Nc2ccccc2C(=O)Nc2ccccc2)c1
IC50 [12]: 5.59 µM (active)

O=C(Nc1cc(N2CCCCC2)ncn1)c1ccc(Br)o1
IC50 [13]: > 21.8 µM (inactive)

c1ccc2cc3[nH]c(CNc4nc(N5CCOCC5)nc5c4ncn5-c4ccsc4)nc3cc2c1
IC50 [14]: 6.35 µM (active)

CCn1nccc1/N=C/c1ccc(N2CCCC2)cc1
AC50 [15]: > 160 µM (inactive)

O=C(Nc1ccc(-c2ccccc2)cc1)NC1CCCC1
AC50 [16]: 68 µM (active)
